Converted amounts (≈) assume the structure as drawn. Like-named read-outs stand apart in the source and are kept apart here.
Assays:
S. cerevisiae = assay: Example I: Saccharomyces cerevisiae growth inhibition (OD 600 nm); assay type: cell-based; conditions: Saccharomyces cerevisiae, 18 hour incubation at 30° C., OD 600 nm, XLfit; for IC50: read-out: IC50, uM (50% inhibition of fungal growth); for MIC: read-out: MIC, uM (99% of inhibition of fungal growth)
[1] = system: Aspergillus fumigatus strains; assay: Example N: MIC and MFC (CLSI) against Aspergillus fumigatus; assay type: cell-based; conditions: for MIC50 / MIC: Aspergillus fumigatus; for MIC: read-out: MIC 100%; for MFC: range over Aspergillus fumigatus strains, in 48 hr
Experimental: (§1) The objective of this study was to determine the antifungal activity of eight experimental compounds against a representative panel of fungal isolates, including Candida albicans, C. glabrata, Cryptococcus neoformans, Trichophyton rubrum, Aspergillus fumigatus, and Rhizopus spp. Antifungal activity was measured by minimum inhibitory concentration (MIC) and minimum fungicidal concentration (MFC).
(§2) Three recent clinical strains of each species, taken from the culture collection at the Center for Medical Mycology, Case Western University, were tested.
(§3) Compounds in powder form were dissolved in DMSO. Serial dilutions of each compound were then prepared in RPMI-1640 in a range of […].
(§4) MIC testing was performed according to the CLSI M27-A3 and M38-A2 standards for the susceptibility testing of yeasts and filamentous fungi, respectively (1, 2). Test isolates were subcultured from frozen slants onto potato dextrose agar plates (Trichophyton rubrum was subcultured onto oatmeal plates for conidia production) and checked for purity. Inocula were then prepared in RPMI-1640 (YNB for Cryptococcus) to a concentration of 0.5-2.5×10^3 colony-forming units (CFU)/ml or 0.4-5×10^4 conidia/ml for yeast and filamentous fungi, respectively.
(§5) MFC determinations were performed according to the modifications previously described by Canton et al. and Ghannoum and Isham. (3, 4) Specifically, the total contents of each clear well from the MIC assay were subcultured onto potato dextrose agar. To avoid antifungal carryover, the aliquots were allowed to soak into the agar and then were streaked for isolation once dry, thus removing the cells from the drug source.

[2] = system: Cryptococcus neoformans strains; assay: Example N: MIC and MFC (CLSI) against Cryptococcus neoformans; assay type: cell-based; set-up: MIC at 50% inhibition: unit not given here; conditions: for MIC / MFC: Cryptococcus neoformans, three clinical strains; for MIC: read-out: MIC 100%, Range, incubated for 72 hrs
Experimental: as §1, §2, §3, §4, §5

Candida albicans strains = assay: Example N: MIC and MFC (CLSI) against Candida albicans; assay type: cell-based; conditions: Candida albicans, three clinical strains; for MIC: read-out: MIC 100%, Range
Experimental: as §1, §2, §3, §4, §5

[3] = system: PC3 human prostate cancer cells; assay: Example S: in vitro anticancer screen, PC-3 cells, Wst1; assay type: cell-based; conditions: Homo sapiens, PC-3; 0.4 μM, approximately 20 hours, Wst1; read-out: PC-3, percent of cancer cell survival relative to vehicle treated cells
How it was run: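 PC-3 cells, 2×10^4 cells/well, exposed ~20 h to vehicle or compound at 0.4, 0.5 or 2.5 μM as specified per compound. Wst1 dye added for 2 h; absorbance 450 nm (reference 630 nm), triplicates. Values are percent cell survival versus vehicle-treated cells.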

[4] = system: PC-3 prostate cancer cells; assay: Example T: sensitisation of PC-3 cells to doxorubicin, oxaliplatin, paclitaxel or vincristine, Wst1; assay type: cell-based, human; conditions: PC-3 cells, 72 hours; for viability at 0.4 µM: Homo sapiens, compound 0.4 μM alone, Wst1, vehicle = 100, read-out: No Chemo: percent cell survival; for Doxorubicin 3.5 μM: percent cell survival: compound 0.4 μM + doxorubicin 3.5 μM; for Doxorubicin 3.5 μM: percent cell survival / Oxaliplatin 100 μM: percent cell survival / Paclitaxel 50 μM: percent cell survival / Vincristine 100 nM: percent cell survival: chemotherapy agent alone normalized to 100%; for Oxaliplatin 100 μM: percent cell survival: compound 0.4 μM + oxaliplatin 100 μM; for Paclitaxel 50 μM: percent cell survival: compound 0.4 μM + paclitaxel 50 μM; for Vincristine 100 nM: percent cell survival: compound 0.4 μM + vincristine 100 nM

Row | IC50 (S. cerevisiae) | MIC (S. cerevisiae) | MIC50 ([1]; 24 h) | MIC ([1]; 24 h) | MIC50 ([1]; 48 h) | MIC ([1]; 48 h) | MIC [2] | MIC (Candida albicans strains; 24 hr) | MIC (Candida albicans strains; 48 hr) | SMILES | MFC [1] | MFC [2] | MFC (Candida albicans strains; 48 hr) | viability at 0.4 µM [3] | viability at 0.4 µM [4] | Doxorubicin 3.5 μM: percent cell survival [4] | Oxaliplatin 100 μM: percent cell survival [4] | Paclitaxel 50 μM: percent cell survival [4] | Vincristine 100 nM: percent cell survival [4] | also measured
1 | 9.67 µM | 10.5 µM (≈ 4.03 µg/mL) | 2 mg/L (≈ 5.2 µM) | 2 mg/L (≈ 5.2 µM) | 2 to 4 mg/L (≈ 5.2 to 10.4 µM) | 4 mg/L (≈ 10.4 µM) | 2 mg/L (≈ 5.2 µM) | 2 to 4 mg/L (≈ 5.2 to 10.4 µM) | 2 to 4 mg/L (≈ 5.2 to 10.4 µM) | CCCCCCOCCCCCCCCCCNc1ccnc2ccccc12 [Compound AL, N-[10-(Hexyloxy)decyl]quinolin-4-amine] | 4 to 32 mg/L (≈ 10.4 to 83.2 µM) | 2 to 4 mg/L (≈ 5.2 to 10.4 µM) | 4 to 8 mg/L (≈ 10.4 to 20.8 µM) | 61.6% | 61.6% | 21.9% | 21.9% | 51.8% | 28.1% | cidal activity (MFC within 4 dilutions of the MIC), in words ([1]; 3 strains): cidal against one of the A. fumigatus strains (MRL 28397)
2 | 19.6 µM | 19.9 µM (≈ 7.79 µg/mL) | 0.12 to 0.25 mg/L (≈ 0.307 to 0.639 µM) | 0.5 to 1 mg/L (≈ 1.28 to 2.56 µM) | 1 to 4 mg/L (≈ 2.56 to 10.2 µM) | 4 to 8 mg/L (≈ 10.2 to 20.5 µM) | 0.5 to 4 mg/L (≈ 1.28 to 10.2 µM) | 0.5 to 4 mg/L (≈ 1.28 to 10.2 µM) | 2 to 4 mg/L (≈ 5.12 to 10.2 µM) | CCCCCCOCCCCCCCCNc1ccnc2c(Cl)cccc12 [Compound AX, 8-Chloro-N-[8-(hexyloxy)octyl]quinolin-4-amine] | > 64 mg/L | 4 to 8 mg/L (≈ 10.2 to 20.5 µM) | 4 to 32 mg/L (≈ 10.2 to 81.8 µM) | 31.2% | 31.2% | 57.9% | 49.5% | 26.7% | 31.5% | MIC at 50% inhibition [2]: 0.12-2; cidal activity (MFC within 4 dilutions of the MIC), in words ([2]; 3 isolates): cidal against all 3 neoformans isolates

Source: US20250034139A1, “AMINE COMPOUNDS HAVING ANTI-INFLAMMATORY, ANTIFUNGAL, ANTIPARASITIC, AND ANTICANCER ACTIVITY” (PHARMA CINQ, LLC, priority 2013, published 2025)
